Article PMC5218480 (PLoS ONE, 2017)

Test system: MV-4-11 cells
Test: Gene expression microarray analysis (Affymetrix PrimeView) and GSEA
Format: cell-based, human
Set-up: RFU PODN (11730768_x_at) / Fold change /veh PODN (11730768_x_at) / RFU LINC00158 (11744669_a_at) / Fold change /veh LINC00158 (11744669_a_at) / RFU DUSP10 (11751237_a_at) / Fold change /veh DUSP10 (11751237_a_at) / RFU ID3 (11757404_x_at) / Fold change /veh ID3 (11757404_x_at) / RFU PLEKHG5 (11737974_s_at) / Fold change /veh PLEKHG5 (11737974_s_at) / RFU LRRC4B (11730491_at) / Fold change /veh LRRC4B (11730491_at) / RFU GIMAP4 (11747438_a_at) / Fold change /veh GIMAP4 (11747438_a_at) / RFU KRT8 (11758183_x_at) / Fold change /veh KRT8 (11758183_x_at) / RFU CNN1 (11734310_a_at) / Fold change /veh CNN1 (11734310_a_at) / RFU VPS37D (11726825_at) / Fold change /veh VPS37D (11726825_at) / RFU C10orf10 (11716522_x_at) / Fold change /veh C10orf10 (11716522_x_at) / RFU KIR2DL2 /// KIR2DL4 /// KIR2DL5A /// KIR2DL5B /// KIR2DS1 /// KIR2DS2 /// KIR2DS3 /// KIR2DS4 /// KIR3DL3 /// KIR3DL3 /// KIR3DS1 (11738374_at) / Fold change /veh KIR2DL2 /// KIR2DL4 /// KIR2DL5A /// KIR2DL5B /// KIR2DS1 /// KIR2DS2 /// KIR2DS3 /// KIR2DS4 /// KIR3DL3 /// KIR3DL3 /// KIR3DS1 (11738374_at) / RFU C1QL1 (11718748_at) / Fold change /veh C1QL1 (11718748_at) / RFU TMPRSS4 (11747572_a_at) / Fold change /veh TMPRSS4 (11747572_a_at) / RFU HAMP (11756126_x_at) / Fold change /veh HAMP (11756126_x_at) / RFU RNFT2 (11725882_a_at) / Fold change /veh RNFT2 (11725882_a_at) / RFU NR4A2 (11747474_a_at) / Fold change /veh NR4A2 (11747474_a_at) / RFU ABCC12 (11746883_a_at) / Fold change /veh ABCC12 (11746883_a_at) / RFU TMEM136 (11760407_x_at) / Fold change /veh TMEM136 (11760407_x_at) / RFU CLDN22 /// WWC2 (11732394_at) / Fold change /veh CLDN22 /// WWC2 (11732394_at) / RFU HLA-DPB1 (11760878_x_at) / Fold change /veh HLA-DPB1 (11760878_x_at) / RFU SPINT1 (11716480_a_at) / Fold change /veh SPINT1 (11716480_a_at) / RFU GAP43 (11754022_s_at) / Fold change /veh GAP43 (11754022_s_at) / RFU A4GNT (11735810_at) / Fold change /veh A4GNT (11735810_at) / RFU PRB3 (11715151_x_at) / Fold change /veh PRB3 (11715151_x_at) / RFU TUBB4B (11761932_at) / Fold change /veh TUBB4B (11761932_at) / RFU CAPN14 (11732068_a_at) / Fold change /veh CAPN14 (11732068_a_at) / RFU TMCC2 (11721928_a_at) / Fold change /veh TMCC2 (11721928_a_at) / RFU IRGQ (11745062_a_at) / Fold change /veh IRGQ (11745062_a_at) / RFU FAM174B (11720279_a_at) / Fold change /veh FAM174B (11720279_a_at) / RFU TMPRSS4 (11748680_a_at) / Fold change /veh TMPRSS4 (11748680_a_at) / RFU FAM212B (11763350_a_at) / Fold change /veh FAM212B (11763350_a_at) / RFU PLEKHG5 (11743358_a_at) / Fold change /veh PLEKHG5 (11743358_a_at) / RFU ZSCAN30 (11745921_a_at) / Fold change /veh ZSCAN30 (11745921_a_at) / RFU CMKLR1 (11741424_a_at) / Fold change /veh CMKLR1 (11741424_a_at) / RFU LOC101060620 /// MAPK8IP1 (11723275_at) / Fold change /veh LOC101060620 /// MAPK8IP1 (11723275_at) / RFU SPTSSB (11747773_x_at) / Fold change /veh SPTSSB (11747773_x_at) / RFU PRSS12 (11739890_at) / Fold change /veh PRSS12 (11739890_at) / RFU BIN1 (11741810_x_at) / Fold change /veh BIN1 (11741810_x_at) / RFU WNT11 (11732464_a_at) / Fold change /veh WNT11 (11732464_a_at) / RFU C10orf10 (11716521_a_at) / Fold change /veh C10orf10 (11716521_a_at) / RFU C5orf56 (11738089_at) / Fold change /veh C5orf56 (11738089_at) / RFU CYB561 (11721691_x_at) / Fold change /veh CYB561 (11721691_x_at) / RFU ANKRD19P (11752326_a_at) / Fold change /veh ANKRD19P (11752326_a_at) / RFU OR2T12 /// OR2T33 /// OR2T8 (11738714_s_at) / Fold change /veh OR2T12 /// OR2T33 /// OR2T8 (11738714_s_at) / RFU VCAN (11748164_a_at) / Fold change /veh VCAN (11748164_a_at) / RFU JSRP1 (11732532_at) / Fold change /veh JSRP1 (11732532_at) / RFU KRTAP10-11 (11738290_x_at) / Fold change /veh KRTAP10-11 (11738290_x_at) / RFU MYO3A (11730013_a_at) / Fold change /veh MYO3A (11730013_a_at) / RFU EBF3 (11725865_a_at) / Fold change /veh EBF3 (11725865_a_at) / RFU CAMK2N1 (11719241_x_at) / Fold change /veh CAMK2N1 (11719241_x_at) / RFU C5orf56 (11738088_a_at) / Fold change /veh C5orf56 (11738088_a_at) / RFU OLFML3 (11715873_a_at) / Fold change /veh OLFML3 (11715873_a_at) / RFU LOC100653217 /// NTM (11731650_a_at) / Fold change /veh LOC100653217 /// NTM (11731650_a_at) / RFU MAPK11 (11762145_a_at) / Fold change /veh MAPK11 (11762145_a_at) / RFU FIZ1 (11724087_x_at) / Fold change /veh FIZ1 (11724087_x_at) / RFU OASL (11726364_x_at) / Fold change /veh OASL (11726364_x_at) / RFU SOX15 (11748057_x_at) / Fold change /veh SOX15 (11748057_x_at) / RFU CD79A (11719716_a_at) / Fold change /veh CD79A (11719716_a_at) / RFU HIST1H1D (11736915_at) / Fold change /veh HIST1H1D (11736915_at) / RFU CASKIN2 (11723855_a_at) / Fold change /veh CASKIN2 (11723855_a_at) / RFU LOC730098 (11760151_x_at) / Fold change /veh LOC730098 (11760151_x_at) / RFU OR4N2 (11742367_at) / Fold change /veh OR4N2 (11742367_at) / RFU PRRT2 (11749266_a_at) / Fold change /veh PRRT2 (11749266_a_at) / RFU SNX32 (11753110_a_at) / Fold change /veh SNX32 (11753110_a_at) / RFU CDHR5 (11726645_a_at) / Fold change /veh CDHR5 (11726645_a_at) / RFU RCAN1 (11760418_a_at) / Fold change /veh RCAN1 (11760418_a_at) / RFU FAM167A (11723789_a_at) / Fold change /veh FAM167A (11723789_a_at) / RFU FAM26E (11764081_at) / Fold change /veh FAM26E (11764081_at) / RFU ISYNA1 (11749810_s_at) / Fold change /veh ISYNA1 (11749810_s_at) / RFU ACY1 (11761880_at) / Fold change /veh ACY1 (11761880_at) / RFU 11764098_at / Fold change /veh 11764098_at / RFU SAMD14 (11745864_x_at) / Fold change /veh SAMD14 (11745864_x_at) / RFU NPB (11741838_a_at) / Fold change /veh NPB (11741838_a_at) / RFU TMPRSS6 (11731388_a_at) / Fold change /veh TMPRSS6 (11731388_a_at) / RFU KRTAP10-2 (11738614_at) / Fold change /veh KRTAP10-2 (11738614_at) / RFU ARHGAP8 /// PRR5-ARHGAP8 (11727945_x_at) / Fold change /veh ARHGAP8 /// PRR5-ARHGAP8 (11727945_x_at) / RFU KRTAP5-7 /// NADSYN1 (11734609_at) / Fold change /veh KRTAP5-7 /// NADSYN1 (11734609_at) / RFU RASL12 (11751679_a_at) / Fold change /veh RASL12 (11751679_a_at) / RFU CDKN2B (11736163_a_at) / Fold change /veh CDKN2B (11736163_a_at) / RFU PRF1 (11729649_at) / Fold change /veh PRF1 (11729649_at) / RFU, ZNF638 /// ZNF638-IT1 / Fold change vs veh, ZNF638 /// ZNF638-IT1 / RFU, PANK3 / Fold change vs veh, PANK3 / RFU, SH3YL1 / Fold change vs veh, SH3YL1 / RFU, ZEB2 / Fold change vs veh, ZEB2 / RFU, NRIP1 / Fold change vs veh, NRIP1 / RFU, PTTG1IP / Fold change vs veh, PTTG1IP / RFU, CAPN2 / Fold change vs veh, CAPN2 / RFU, MED14 / Fold change vs veh, MED14 / RFU, SNORA58 / Fold change vs veh, SNORA58 / RFU, C1orf63 / Fold change vs veh, C1orf63 / RFU, LRRFIP1 / Fold change vs veh, LRRFIP1 / RFU, NDUFAF7 / Fold change vs veh, NDUFAF7 / RFU, SLC12A2 / Fold change vs veh, SLC12A2 / RFU, IBTK / Fold change vs veh, IBTK / RFU, ESF1 / Fold change vs veh, ESF1 / Fold change vs veh, TMEM50B / RFU, TAOK1 / Fold change vs veh, TAOK1 / RFU, ACBD3 / Fold change vs veh, ACBD3 / RFU, TMA16 / Fold change vs veh, TMA16 / RFU, RWDD3 / Fold change vs veh, RWDD3 / RFU, BCAT1 / Fold change vs veh, BCAT1 / RFU, EDEM3 / Fold change vs veh, EDEM3 / RFU, TMEM33 / Fold change vs veh, TMEM33 / RFU, WDR75 / Fold change vs veh, WDR75 / RFU, AHCTF1 / Fold change vs veh, AHCTF1 / RFU, TFRC / Fold change vs veh, TFRC / RFU, ZDHHC17 / Fold change vs veh, ZDHHC17 / RFU, NOM1 / Fold change vs veh, NOM1 / RFU, ARL8B / Fold change vs veh, ARL8B / RFU, ZBTB11 / Fold change vs veh, ZBTB11 / RFU, TAMM41 / Fold change vs veh, TAMM41 / RFU, KIAA1704 /// LOC100996395 / Fold change vs veh, KIAA1704 /// LOC100996395 / RFU, ING1 / Fold change vs veh, ING1 / RFU, TRMT61B / Fold change vs veh, TRMT61B / RFU, FUBP3 / Fold change vs veh, FUBP3 / RFU, TP53 / Fold change vs veh, TP53 / RFU, TNKS2 / Fold change vs veh, TNKS2 / RFU, ZFP14 / Fold change vs veh, ZFP14 / RFU, ACTR2 / Fold change vs veh, ACTR2 / RFU, PPP3R1 / Fold change vs veh, PPP3R1 / RFU, PIK3R1 / Fold change vs veh, PIK3R1 / RFU, HNRNPA1 / Fold change vs veh, HNRNPA1 / RFU, RNF170 / Fold change vs veh, RNF170 / RFU, ZNF28 / Fold change vs veh, ZNF28 / RFU, RNGTT / Fold change vs veh, RNGTT / RFU, OGT / Fold change vs veh, OGT / RFU, BRD1 / Fold change vs veh, BRD1 / RFU, MARS / Fold change vs veh, MARS / RFU, ZNF655 / Fold change vs veh, ZNF655 / RFU, FAHD1 / Fold change vs veh, FAHD1 / RFU, BDP1 / Fold change vs veh, BDP1 / RFU, LRRCC1 / Fold change vs veh, LRRCC1 / RFU, ARID1A / Fold change vs veh, ARID1A / RFU, ZNF146 / Fold change vs veh, ZNF146 / RFU, ZNF330 / Fold change vs veh, ZNF330 / RFU, GPN3 / Fold change vs veh, GPN3 / RFU, C9orf123 / Fold change vs veh, C9orf123 / RFU, N4BP2L2 / Fold change vs veh, N4BP2L2 / RFU, ARFIP1 / Fold change vs veh, ARFIP1 / RFU, FAM179B / Fold change vs veh, FAM179B / RFU, BCL10 / Fold change vs veh, BCL10 / RFU, UHRF1BP1L / Fold change vs veh, UHRF1BP1L / RFU, BET1 / Fold change vs veh, BET1 / RFU, CNOT2 / Fold change vs veh, CNOT2 / RFU, ZNF268 / Fold change vs veh, ZNF268 / Fold change vs veh, ZNF507 / RFU, DGCR2 / Fold change vs veh, DGCR2 / RFU, WDSUB1 / Fold change vs veh, WDSUB1 / Fold change vs veh, HSP90B1 /// MIR3652 / RFU, ADSS / Fold change vs veh, ADSS / RFU, GK / Fold change vs veh, GK / RFU, ZNF148 / Fold change vs veh, ZNF148 / RFU, TAF9 / Fold change vs veh, TAF9 / RFU, SLC1A5 / Fold change vs veh, SLC1A5 / RFU, SLMO2 / Fold change vs veh, SLMO2 / RFU, ABCC4 / Fold change vs veh, ABCC4 / RFU, LOC101060439 /// RAP1B / Fold change vs veh, LOC101060439 /// RAP1B / RFU, RFX7 / Fold change vs veh, RFX7 / RFU, GTPBP10 / Fold change vs veh, GTPBP10 / RFU, CNEP1R1 / Fold change vs veh, CNEP1R1 / RFU, BIVM-ERCC5 /// ERCC5 / Fold change vs veh, BIVM-ERCC5 /// ERCC5 / RFU, ILF3 / Fold change vs veh, ILF3 / RFU 11762660_at / Fold change /veh 11762660_at / RFU VCAN (11757783_s_at) / Fold change /veh VCAN (11757783_s_at) / RFU DDX43 (11728927_at) / Fold change /veh DDX43 (11728927_at) / RFU KRT8 (11758188_x_at) / Fold change /veh KRT8 (11758188_x_at) / RFU NKD1 (11759106_at) / Fold change /veh NKD1 (11759106_at) / RFU SRD5A1 (11742802_a_at) / Fold change /veh SRD5A1 (11742802_a_at) / RFU TPSAB1 /// TPSB2 (11721975_s_at) / Fold change /veh TPSAB1 /// TPSB2 (11721975_s_at) / RFU GSTM3 (11746129_a_at) / Fold change /veh GSTM3 (11746129_a_at) / RFU IL23R (11737362_x_at) / Fold change /veh IL23R (11737362_x_at) / RFU TMEM51 (11727254_a_at) / Fold change /veh TMEM51 (11727254_a_at) / RFU PIWIL2 (11732686_x_at) / Fold change /veh PIWIL2 (11732686_x_at) / RFU ORM1 (11744905_x_at) / Fold change /veh ORM1 (11744905_x_at) / RFU CCDC152 (11743942_at) / Fold change /veh CCDC152 (11743942_at) / RFU ECM1 (11717891_a_at) / Fold change /veh ECM1 (11717891_a_at) / RFU IL23R (11748794_a_at) / Fold change /veh IL23R (11748794_a_at) / RFU TNFAIP8L3 (11732012_x_at) / Fold change /veh TNFAIP8L3 (11732012_x_at) / RFU MBOAT4 (11741988_at) / Fold change /veh MBOAT4 (11741988_at) / RFU 11764193_at / Fold change /veh 11764193_at / RFU TMEM53 (11763286_at) / Fold change /veh TMEM53 (11763286_at) / RFU MAGEB2 (11727129_at) / Fold change /veh MAGEB2 (11727129_at) / RFU TMEM200A (11744735_a_at) / Fold change /veh TMEM200A (11744735_a_at) / RFU CCDC152 (11751479_a_at) / Fold change /veh CCDC152 (11751479_a_at) / RFU FAM211A (11726209_a_at) / Fold change /veh FAM211A (11726209_a_at) / RFU RGS16 (11746705_a_at) / Fold change /veh RGS16 (11746705_a_at) / RFU VCAN (11755009_s_at) / Fold change /veh VCAN (11755009_s_at) / RFU RHOB (11743442_s_at) / Fold change /veh RHOB (11743442_s_at) / RFU RGS16 (11720943_a_at) / Fold change /veh RGS16 (11720943_a_at) / RFU RGS16 (11720944_at) / Fold change /veh RGS16 (11720944_at) / RFU, VPS4B / Fold change vs veh, VPS4B / RFU, CREB1 / Fold change vs veh, CREB1 / RFU, DNAJC13 / Fold change vs veh, DNAJC13 / RFU, GNAQ / Fold change vs veh, GNAQ / RFU, CDK5R1 / Fold change vs veh, CDK5R1 / RFU, ZRANB3 / Fold change vs veh, ZRANB3 / RFU, CUL4A / Fold change vs veh, CUL4A / RFU, CCNY / Fold change vs veh, CCNY / RFU, UFL1 / Fold change vs veh, UFL1 / RFU, COG3 / Fold change vs veh, COG3 / RFU, DIAPH2 / Fold change vs veh, DIAPH2 / RFU, SKA2 / Fold change vs veh, SKA2 / RFU, AFF3 / Fold change vs veh, AFF3 / RFU, LMF1 / Fold change vs veh, LMF1 / RFU, IPO11 / Fold change vs veh, IPO11 / RFU, DFFB / Fold change vs veh, DFFB / RFU, FOXP1 / Fold change vs veh, FOXP1 / RFU, CARD8 / Fold change vs veh, CARD8 / RFU, STRN3 / Fold change vs veh, STRN3 / RFU, ADK / Fold change vs veh, ADK / RFU, RASSF2 / Fold change vs veh, RASSF2 / RFU, WIPF1 / Fold change vs veh, WIPF1 / RFU, LARP1B / Fold change vs veh, LARP1B / RFU, RASA1 / Fold change vs veh, RASA1 / RFU, RB1 / Fold change vs veh, RB1 / RFU, PPFIA1 / Fold change vs veh, PPFIA1 / RFU, MAT2A / Fold change vs veh, MAT2A / RFU, CCT5 / Fold change vs veh, CCT5 / RFU, WDR92 / Fold change vs veh, WDR92 / RFU, CUX1 / Fold change vs veh, CUX1 / RFU, TTC7A / Fold change vs veh, TTC7A / RFU, TMEM135 / Fold change vs veh, TMEM135 / RFU, DEPTOR / Fold change vs veh, DEPTOR / RFU, CPM / Fold change vs veh, CPM / RFU, DNAJB6 / Fold change vs veh, DNAJB6 / RFU, CACNA2D3 / Fold change vs veh, CACNA2D3 / RFU, DTX4 / Fold change vs veh, DTX4 / RFU, TFCP2 / Fold change vs veh, TFCP2 / RFU, GMCL1 /// GMCL1P1 / Fold change vs veh, GMCL1 /// GMCL1P1 / RFU, AEBP2 / Fold change vs veh, AEBP2 / RFU, SNHG1 /// SNORD22 /// SNORD25 /// SNORD26 /// SNORD27 /// SNORD28 /// SNORD29 /// SNORD31 / Fold change vs veh, SNHG1 /// SNORD22 /// SNORD25 /// SNORD26 /// SNORD27 /// SNORD28 /// SNORD29 /// SNORD31 / Fold change (Aza/veh), C12orf56 (ProbeSet 11735607_a_at) / Fold change (ACY-1035/veh), C12orf56 (ProbeSet 11735607_a_at) / Fold change (Aza/veh), FGFR1OP (ProbeSet 11751329_s_at) / Fold change (ACY-1035/veh), FGFR1OP (ProbeSet 11751329_s_at) / Fold change (Aza/veh), VPS36 (ProbeSet 11739960_a_at) / Fold change (ACY-1035/veh), VPS36 (ProbeSet 11739960_a_at) / RFU SYPL1 (11715823_x_at) / Fold change /veh SYPL1 (11715823_x_at) / RFU IGFBP7 (11715501_s_at) / Fold change /veh IGFBP7 (11715501_s_at) / RFU REEP3 (11722064_at) / Fold change /veh REEP3 (11722064_at) / RFU IGLL1 (11728026_x_at) / Fold change /veh IGLL1 (11728026_x_at): dose or concentration left out as unconfirmed
Details: MV-4-11 cells, 48 hours

Nc1ncn([C@@H]2O[C@H](CO)[C@@H](O)[C@H]2O)c(=O)n1 [azacitidine]
RFU MAPK11 (11762145_a_at): 24.54 RFU
